Data: patent US12214036B2, “Combination therapy comprising AXL/MER and PD-1/PD-L1 inhibitors” (Incyte Corporation, priority 2020, dated 2025)

Experiments:
4T1 tumor = test: Tumor models in immunodeficient mice; assay type: in vivo, athymic nude mice; conditions: immunodeficient mice bearing the same tumors, FIG. 7C
Text: MBT-2 cells were obtained from the Japanese Collection of Research Bioresources Cell Bank and were maintained in DMEM supplemented with 10% FBS. MC38 cells were obtained from the NCI. 4T1 cells were obtained from ATCC and maintained in RPMI media supplemented with 10% FBS. For MBT-2 experiments, 5×10^5 MBT-2 cells were inoculated subcutaneously into the right hind flank of 6- to 8-week-old C3H mice or athymic nude mice (Charles River Laboratories, Wilmington, Mass.). For MC38 studies, 12-week old female C57BL/6 mice were inoculated with brei of MC38 tumors (in-vivo passage 6) into the right hind flank. For 4T1 studies, 7.5×10^5 4 T1 cells were inoculated subcutaneously into the right hind flank of 6- to 8-week-old female BALB/c mice or athymic nude mice (Charles River Laboratories). Mice were randomized by tumor volume with n=10-12 per group. […] Mice were monitored for tumor growth and overt tolerability over the course of the experiment. […] Tumor volume was calculated using the formula (L×W^2)/2, where L and W refer to the length and width dimensions, respectively. Tumor growth inhibition (TGI) was calculated using the formula (1−(VT/VC))×100, where VT is the tumor volume of the treatment group on the last day of treatment, and VC is the tumor volume of the control group on the last day of treatment. […]

[1] = test system: human PBMCs co-cultured with H1299 cells; test: H1299 / PBMC co-culture cytokine assay; assay type: cell-based; conditions: 4 days
Procedure: The ability of Compound 1 to cooperate with checkpoint blockade to further boost antitumor responses was evaluated. H1299 lung cancer cells were co-cultured with stimulated human PBMCs treated with Compound 1, anti-human programmed cell death (PD)-1 antibody retifanlimab or the combination, and production of proinflammatory cytokines was assessed in two different experiments (FIG. 6).
H1299 cells were co-cultured with human PBMCs, each at 4 or 16×10^4 cells/mL in RPMI containing 10% FBS, 100 U/mL of penicillin-streptomycin (ThermoFisher Scientific; #15140-122) and 1× beta-mercaptoethanol (ThermoFisher Scientific; #21985-023). Compound 1 or retifanlimab were added as single agents or in combination to the cells. Anti-CD3 (BD Biosciences #555336), anti-CD28 (BD Biosciences #555725) or SEA (Toxin Technology, Sarasota, Fla.; #AT101red) were added at a final concentration of 1 μg/mL, 0.5 μg/mL or 100 ng/mL, respectively, to stimulate cell growth. Cultures were incubated at 37° C. in 5% CO2 incubator for 4 days. The supernatant was collected for cytokine analysis using a multiplex assay system (custom human ProcartaPlex Luminex kit, ThermoFisher Scientific; #PPX-15-MXRWE6P).

With CC(C)C(=O)N1CCC(c2cc(-c3ccc(NC(=O)c4cn(C(C)C)c(=O)n(-c5ccccn5)c4=O)cc3)c3c(N)ncnn23)CC1 [Compound 1, N-(4-(4-Amino-7-(1-isobutyrylpiperidin-4-yl)pyrrolo[1,2-f][1,2,4]triazin-5-yl)phenyl)-1-isopropyl-2,4-dioxo-3-(pyridin-2-yl)-1,2,3,4-tetrahydropyrimidine-5-carboxamide] the “antitumor activity in immunodeficient mice” value (4T1 tumor) was “no activity”, the proinflammatory cytokine production ([1]; stimulated PBMCs + H1299, FIG. 6) was “induction of proinflammatory cytokines” and the “induction of IFN-γ” value ([1]; stimulated PBMCs + H1299, FIG. 6B) was “induced”. For the same compound, the “induction of tumor necrosis factor-α” value ([1]; stimulated PBMCs + H1299, FIG. 6C) was “induced”, the “induction of granulocyte-macrophage colony-stimulating factor” value ([1]; stimulated PBMCs + H1299, FIG. 6D) was “induced” and the “induction of IL-12 p70” value ([1]; stimulated PBMCs + H1299, FIG. 6E) was “moderately induced”.
